Data reported in PubChem BioAssay (NCI).
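Here, GI50 denotes the concentration required for 50% inhibition of growth. Definition used: TGI = concentration required for complete inhibition of growth.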

Legend:
Experiment in all cases: inhibition of tumour cell growth, NCI panel, 384-well format
HOP-92 NSCLC = system: HOP-92 NSCLC
K-562 leukemia = system: K-562 leukemia
A498 renal = system: A498 renal
EKVX NSCLC = system: EKVX NSCLC
TK-10 renal = system: TK-10 renal
SK-MEL-28 melanoma = system: SK-MEL-28 melanoma
SF-268 CNS = system: SF-268 CNS
U251 glioblastoma = system: U251 glioblastoma
A549 NSCLC = system: A549 NSCLC
DU-145 prostate = system: DU-145 prostate
BT-549 breast = system: BT-549 breast
SK-OV-3 ovarian = system: SK-OV-3 ovarian
OVCAR-4 ovarian = system: OVCAR-4 ovarian
SK-MEL-5 melanoma = system: SK-MEL-5 melanoma
NCI-H460 NSCLC = system: NCI-H460 NSCLC
MDA-MB-231 breast = system: MDA-MB-231 breast
RPMI-8226 leukemia = system: RPMI-8226 leukemia
NCI-H226 lung = system: NCI-H226 lung
SW-620 colon = system: SW-620 colon
SF-539 CNS = system: SF-539 CNS
IGROV1 ovarian = system: IGROV1 ovarian
RXF 393 renal = system: RXF 393 renal
HCT-15 colon = system: HCT-15 colon
MDA-MB-468 breast = system: MDA-MB-468 breast
HCC-2998 colon = system: HCC-2998 colon
MOLT-4 leukemia = system: MOLT-4 leukemia
ACHN renal = system: ACHN renal
MCF7 breast = system: MCF7 breast
HL-60(TB) leukemia = system: HL-60(TB) leukemia
OVCAR-3 ovarian = system: OVCAR-3 ovarian
CCRF-CEM leukemia = system: CCRF-CEM leukemia
OVCAR-8 ovarian = system: OVCAR-8 ovarian
SF-295 CNS = system: SF-295 CNS
CAKI-1 renal = system: CAKI-1 renal
NCI-H322M lung = system: NCI-H322M lung
NCI/ADR-RES ovarian = system: NCI/ADR-RES ovarian
M14 melanoma = system: M14 melanoma
NCI-H23 lung = system: NCI-H23 lung
SNB-19 CNS = system: SNB-19 CNS
LOX IMVI melanoma = system: LOX IMVI melanoma
UACC-257 melanoma = system: UACC-257 melanoma
MALME-3M melanoma = system: MALME-3M melanoma
SN12C renal = system: SN12C renal
PC-3 prostate = system: PC-3 prostate
HCT-116 colon = system: HCT-116 colon
MDA-MB-435 melanoma = system: MDA-MB-435 melanoma
HS 578T breast = system: HS 578T breast
UACC-62 melanoma = system: UACC-62 melanoma
UO-31 renal = system: UO-31 renal
COLO 205 colon = system: COLO 205 colon
786-0 renal = system: 786-0 renal
HOP-62 NSCLC = system: HOP-62 NSCLC
OVCAR-5 ovarian = system: OVCAR-5 ovarian
NCI-H522 lung = system: NCI-H522 lung
SNB-75 CNS = system: SNB-75 CNS

`N#CCCNc1nonc1-c1nc2ccccc2n1CC(=O)c1ccc(NC(=O)[C@@H](N)CCCCN)cc1` showed a GI50 (HOP-92 NSCLC) of 51.5 nM, a TGI (HOP-92 NSCLC) of 884 nM and a GI50 (K-562 leukemia) of 18.7 nM. It also gave a TGI (K-562 leukemia) of 38.8 nM, a GI50 (A498 renal) of 30.6 nM and a TGI (A498 renal) of over 100 µM. The GI50 (EKVX NSCLC) was 54.5 nM, the TGI (EKVX NSCLC) was over 100 µM and the GI50 (TK-10 renal) was 83.4 nM. It also gave a TGI (TK-10 renal) of 93 µM, a GI50 (SK-MEL-28 melanoma) of 78.1 nM and a TGI (SK-MEL-28 melanoma) of 46.3 µM. It also gave a GI50 (SF-268 CNS) of 13.6 nM, a TGI (SF-268 CNS) of 47.4 nM and a GI50 (U251 glioblastoma) of 32.8 nM. The TGI (U251 glioblastoma) was 148 nM, the GI50 (A549 NSCLC) was 36.9 nM and the TGI (A549 NSCLC) was over 100 µM. The GI50 (DU-145 prostate) was 37.5 nM, the TGI (DU-145 prostate) was 640 nM and the GI50 (BT-549 breast) was 22.2 nM. For the same compound, the TGI (BT-549 breast) was 54 nM, the GI50 (SK-OV-3 ovarian) was 39.9 nM and the TGI (SK-OV-3 ovarian) was 16.2 µM. For the same compound, the GI50 (OVCAR-4 ovarian) was 86.1 nM, the TGI (OVCAR-4 ovarian) was 66.3 µM and the GI50 (SK-MEL-5 melanoma) was 20.9 nM. The TGI (SK-MEL-5 melanoma) was 57.1 nM, the GI50 (NCI-H460 NSCLC) was 22.1 nM and the TGI (NCI-H460 NSCLC) was 47.3 nM. The GI50 (MDA-MB-231 breast) was 135 nM, the TGI (MDA-MB-231 breast) was 78.6 µM and the GI50 (RPMI-8226 leukemia) was 19.2 nM. The TGI (RPMI-8226 leukemia) was 35.4 nM, the GI50 (NCI-H226 lung) was 90.3 nM and the TGI (NCI-H226 lung) was 41.9 µM. The GI50 (SW-620 colon) was 42.4 nM, the TGI (SW-620 colon) was 88.4 µM and the GI50 (SF-539 CNS) was 20 nM. It also gave a TGI (SF-539 CNS) of 45.7 nM, a GI50 (IGROV1 ovarian) of 43.5 nM and a TGI (IGROV1 ovarian) of over 100 µM. For the same compound, the GI50 (RXF 393 renal) was 20.8 nM, the TGI (RXF 393 renal) was 53 nM and the GI50 (HCT-15 colon) was 30 nM. It also gave a TGI (HCT-15 colon) of 103 nM, a GI50 (MDA-MB-468 breast) of 19.9 nM and a TGI (MDA-MB-468 breast) of 46.1 nM. For the same compound, the GI50 (HCC-2998 colon) was 24.9 nM, the TGI (HCC-2998 colon) was 74.1 nM and the GI50 (MOLT-4 leukemia) was 16.8 nM. The TGI (MOLT-4 leukemia) was 31.1 nM, the GI50 (ACHN renal) was 63.6 nM and the TGI (ACHN renal) was over 100 µM. For the same compound, the GI50 (MCF7 breast) was 39.4 nM, the TGI (MCF7 breast) was 3.27 µM and the GI50 (HL-60(TB) leukemia) was 20.7 nM. It also gave a TGI (HL-60(TB) leukemia) of 35.8 nM, a GI50 (OVCAR-3 ovarian) of 19.9 nM and a TGI (OVCAR-3 ovarian) of 45.7 nM. It also gave a GI50 (CCRF-CEM leukemia) of 18.3 nM, a TGI (CCRF-CEM leukemia) of 33.1 nM and a GI50 (OVCAR-8 ovarian) of 32 nM. For the same compound, the TGI (OVCAR-8 ovarian) was 117 nM, the GI50 (SF-295 CNS) was 26.3 nM and the TGI (SF-295 CNS) was 71.4 nM. For the same compound, the GI50 (CAKI-1 renal) was 41.1 nM, the TGI (CAKI-1 renal) was over 100 µM and the GI50 (NCI-H322M lung) was 73 nM. For the same compound, the TGI (NCI-H322M lung) was over 100 µM, the GI50 (NCI/ADR-RES ovarian) was 18.2 nM and the TGI (NCI/ADR-RES ovarian) was 35.1 nM. For the same compound, the GI50 (M14 melanoma) was 19.9 nM, the TGI (M14 melanoma) was 46.5 nM and the GI50 (NCI-H23 lung) was 21.8 nM. The TGI (NCI-H23 lung) was 52.6 nM, the GI50 (SNB-19 CNS) was 37 nM and the TGI (SNB-19 CNS) was over 100 µM. For the same compound, the GI50 (LOX IMVI melanoma) was 46 nM, the TGI (LOX IMVI melanoma) was 407 nM and the GI50 (UACC-257 melanoma) was 59.1 nM. It also gave a TGI (UACC-257 melanoma) of 22.6 µM, a GI50 (MALME-3M melanoma) of 34.8 nM and a TGI (MALME-3M melanoma) of 163 nM. For the same compound, the GI50 (SN12C renal) was 45.2 nM, the TGI (SN12C renal) was 2170 nM and the GI50 (PC-3 prostate) was 38.9 nM. The TGI (PC-3 prostate) was 948 nM, the GI50 (HCT-116 colon) was 33.3 nM and the TGI (HCT-116 colon) was 192 nM. It also gave a GI50 (MDA-MB-435 melanoma) of 19.4 nM, a TGI (MDA-MB-435 melanoma) of 38.3 nM and a GI50 (HS 578T breast) of 17.4 nM. It also gave a TGI (HS 578T breast) of 36.9 nM, a GI50 (UACC-62 melanoma) of 31 nM and a TGI (UACC-62 melanoma) of 344 nM. The GI50 (UO-31 renal) was 60.1 nM, the TGI (UO-31 renal) was 11.3 µM and the GI50 (COLO 205 colon) was 27.8 nM. For the same compound, the TGI (COLO 205 colon) was 78.3 nM, the GI50 ([…]-0 renal) was 36.3 nM and the TGI (786-0 renal) was 422 nM. For the same compound, the GI50 (HOP-62 NSCLC) was 38.8 nM, the TGI (HOP-62 NSCLC) was 1020 nM and the GI50 (OVCAR-5 ovarian) was 120 nM. The TGI (OVCAR-5 ovarian) was over 100 µM, the GI50 (NCI-H522 lung) was 17.7 nM and the TGI (NCI-H522 lung) was 37 nM. For the same compound, the GI50 (SNB-75 CNS) was 38.7 nM and the TGI (SNB-75 CNS) was 66.6 µM.
